From patent US9127015B2, “Tricyclopyrazole derivatives” (NERVIANO MEDICAL SCIENCES S.R.L., priority 2009, dated 2015)

Legend:
Assay type in all cases: biochemical
KIT = KIT (Homo sapiens, UniProt P10721); test: Kinase inhibition assay, IC50 (Table A); conditions: Enzyme KIT
Procedure: (§1) The inhibiting activity of putative kinase inhibitors and the potency of selected compounds is determined through a method of assay based on the use of the Kinase-Glo® Luminescent Kinase Assay (commercially available from Promega corporation and described in Koresawa, M. and Okabe, T. (2004) High-throughput screening with quantitation of ATP consumption: A universal non-radioisotope, homogeneous assay for protein kinase. Assay Drug Dev. Technol. 2, 153-60).
(§2) The inhibitory activity of putative kinase inhibitors and the potency of selected compounds were also determined using a trans-phosphorylation assay.
(§3) Specific peptide or protein substrates are trans-phosphorylated by their specific ser-thr or tyr kinase in the presence of ATP traced with ^33P-γ-ATP, and in the presence of their own optimal buffer and cofactors. At the end of the phosphorylation reaction, more than 98% unlabeled ATP and radioactive ATP is captured by an excess of the ion exchange dowex resin; the resin then settles down to the bottom of the reaction plate by gravity. Supernatant is subsequently withdrawn and transferred into a counting plate, then evaluated by β-counting.
(§4) Reaction conditions are target (enzyme) dependent and thus undergo individual adaptations. Also the buffer conditions may vary depending on the kinase of interest. The assay can be used with virtually any kinase and substrate combination and is suitable for all type of protein kinases, such as ABL, ACK1, AKT1, ALK, AUR1, AUR2, BRK, BUB1, CDC7/DBF4, CDK21CYCA, CHK1, CK2, EEF2K, EGFR1, EphA2, EphB4, ERK2, FAK, FGFR1, FLT3, GSK3beta, Haspin, IGFR1, IKK2, IR, JAK1, JAK2, JAK3, KIT, LCK, LYN, MAPKAPK2, MELK, MET, MNK2, MPSI, MST4, NEK6, NIM1, P38alpha, PAK-4, PDGFR, PDK1, PERK, PIM1, PIM2, PKAalpha, PKCbeta, PLK1, RET, ROS1, SULU1, Syk, TLK2, TRKA, TYK, VEGFR2, VEGFR3, ZAP70.

FGFR1 = FGFR1 (Homo sapiens, UniProt P11362); test: Kinase inhibition assay, IC50 (Table A); conditions: Enzyme FGFR1
Procedure: as §1, §2, §3, §4

ACK1 = ACK1 (Homo sapiens, UniProt Q07912); test: Kinase inhibition assay, IC50 (Table A); conditions: Enzyme ACK1
Procedure: as §1, §2, §3, §4

ABL = ABL (Homo sapiens, UniProt P00519); test: Kinase inhibition assay, IC50 (Table A); conditions: Enzyme ABL
Procedure: as §1, §2, §3, §4

LCK = LCK (Homo sapiens, UniProt P06239); test: Kinase inhibition assay, IC50 (Table A); conditions: Enzyme LCK
Procedure: as §1, §2, §3, §4

BRK = BRK (Homo sapiens, UniProt Q13882); test: Kinase inhibition assay, IC50 (Table A); conditions: Enzyme BRK
Procedure: as §1, §2, §3, §4

EGFR1 = EGFR1 (Homo sapiens, UniProt P00533); test: Kinase inhibition assay, IC50 (Table A); conditions: Enzyme EGFR1
Procedure: as §1, §2, §3, §4

ALK = ALK (Homo sapiens, UniProt Q9UM73); test: Kinase inhibition assay, IC50 (Table A); conditions: Enzyme ALK
Procedure: as §1
As example herein are reported the assay conditions used for testing the compounds of formula (I) against ALKtide YFF APCo kinase; • ATP concentration: 1 μM • Enzyme concentration: 100 nM • Reaction buffer: Hepes 50 mM pH 7.5, MgCl2 5 mM, MnCl2 1 mM, DTT 1 mM, Na3VO4 3 uM, 0.2 mg/ml BSA. • Assay procedure: add 5 ul compound of formula (I) (3×), add 5 μl ATP/S mix (3×) in buffer 1×; add 5 μl enzyme in buffer 2×+3×BSA; for the blank, add 5 μl buffer 2×+3×BSA without enzyme. After 90 minutes of incubation, add 15 μl/well of Kinase-Glo reagent. After 60-90 minutes of incubation to stabilize the luminescent signal, the plates are read on a ViuwLux instrument.
as §2, §3
Reaction conditions are target (enzyme) dependent and thus undergo individual adaptations. Also the buffer conditions may vary depending on the kinase of interest. […]

CDC7/DBF4 = CDC7/DBF4 (Homo sapiens, UniProt O00311); test: Inhibition assay of Cdc7 activity (Dowex resin capture, 33P-ATP, MCM2 substrate); conditions: Enzyme CDC7/DBF4
Procedure: as §2, §3
(§5) As example herein are reported the assay conditions used for testing the compounds of formula (I) against cdc7 and cdk2 kinase.
Inhibition Assay of Cdc7 Activity
The inhibiting activity of putative Cdc7 inhibitors and the potency of selected compounds is determined through a method of assay based on the use of Dowex resin capture technology.
The assay consists of the transfer of radioactivity labeled phosphate moiety by the kinase to an acceptor substrate.
The resulting ^33P-labeled product is separated from unreacted tracer, transferred into a scintillation cocktail and light emitted is measured in a scintillation counter. […]

GSK3beta = GSK3beta (Homo sapiens, UniProt P49841); test: Kinase inhibition assay, IC50 (Table A); conditions: Enzyme GSK3beta
Procedure: as §1, §2, §3, §4

MELK = MELK (Homo sapiens, UniProt Q14680); test: Kinase inhibition assay, IC50 (Table A); conditions: Enzyme MELK
Procedure: as §1, §2, §3, §4

CDK2/CYCA = target: T1, CDK2/CYCA (Homo sapiens, UniProt P24941); test: Inhibition assay of Cdk2/Cyclin A activity (33P-ATP, histone H1 substrate); conditions: Enzyme CDK2/CYCA
T1 construct: host or cells: baculovirus expression system (co-expression)
Procedure: as §2, §3, §5
To each well of the plate were added: • 10 μl test compound (10 increasing concentrations in the nM to uM range to generate a dose-response curve). The solvent for test compounds contained 3% DMSO. (final concentration 1%) • 10 μl substrate MCM2 ([…] final concentration), a mixture of cold ATP ([…] final concentration) and radioactive ATP (1/5000 molar ratio with cold ATP). • 10 μl enzyme (Cdc7/Dbf4, 2 nM final concentration) that started the reaction. […]

Chain of KIT (P10721 26-976): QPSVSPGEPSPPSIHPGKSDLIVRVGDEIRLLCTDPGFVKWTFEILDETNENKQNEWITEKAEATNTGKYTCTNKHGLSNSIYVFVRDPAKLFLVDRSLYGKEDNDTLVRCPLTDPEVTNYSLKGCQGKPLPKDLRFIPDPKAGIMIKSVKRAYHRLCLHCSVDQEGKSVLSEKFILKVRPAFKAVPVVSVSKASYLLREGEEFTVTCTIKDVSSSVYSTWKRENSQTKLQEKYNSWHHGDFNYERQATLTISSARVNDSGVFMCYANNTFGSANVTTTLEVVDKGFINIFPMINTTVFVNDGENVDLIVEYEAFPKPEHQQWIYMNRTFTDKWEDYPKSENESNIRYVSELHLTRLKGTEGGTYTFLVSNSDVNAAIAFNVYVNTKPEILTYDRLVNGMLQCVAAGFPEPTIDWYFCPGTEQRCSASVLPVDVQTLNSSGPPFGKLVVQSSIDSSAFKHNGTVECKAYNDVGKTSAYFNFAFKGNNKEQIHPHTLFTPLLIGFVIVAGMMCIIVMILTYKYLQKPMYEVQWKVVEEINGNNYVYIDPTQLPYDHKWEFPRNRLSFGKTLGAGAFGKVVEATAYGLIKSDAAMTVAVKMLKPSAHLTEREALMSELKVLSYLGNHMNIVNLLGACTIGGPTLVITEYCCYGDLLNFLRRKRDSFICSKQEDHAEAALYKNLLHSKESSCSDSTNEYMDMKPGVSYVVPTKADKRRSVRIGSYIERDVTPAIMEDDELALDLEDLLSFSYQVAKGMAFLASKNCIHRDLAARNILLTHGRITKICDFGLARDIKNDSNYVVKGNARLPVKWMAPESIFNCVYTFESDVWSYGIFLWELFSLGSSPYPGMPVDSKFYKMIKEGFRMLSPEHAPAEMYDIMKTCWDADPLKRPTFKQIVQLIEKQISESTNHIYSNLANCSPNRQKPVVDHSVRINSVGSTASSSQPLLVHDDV
Chain of ACK1 (Q07912 whole entry): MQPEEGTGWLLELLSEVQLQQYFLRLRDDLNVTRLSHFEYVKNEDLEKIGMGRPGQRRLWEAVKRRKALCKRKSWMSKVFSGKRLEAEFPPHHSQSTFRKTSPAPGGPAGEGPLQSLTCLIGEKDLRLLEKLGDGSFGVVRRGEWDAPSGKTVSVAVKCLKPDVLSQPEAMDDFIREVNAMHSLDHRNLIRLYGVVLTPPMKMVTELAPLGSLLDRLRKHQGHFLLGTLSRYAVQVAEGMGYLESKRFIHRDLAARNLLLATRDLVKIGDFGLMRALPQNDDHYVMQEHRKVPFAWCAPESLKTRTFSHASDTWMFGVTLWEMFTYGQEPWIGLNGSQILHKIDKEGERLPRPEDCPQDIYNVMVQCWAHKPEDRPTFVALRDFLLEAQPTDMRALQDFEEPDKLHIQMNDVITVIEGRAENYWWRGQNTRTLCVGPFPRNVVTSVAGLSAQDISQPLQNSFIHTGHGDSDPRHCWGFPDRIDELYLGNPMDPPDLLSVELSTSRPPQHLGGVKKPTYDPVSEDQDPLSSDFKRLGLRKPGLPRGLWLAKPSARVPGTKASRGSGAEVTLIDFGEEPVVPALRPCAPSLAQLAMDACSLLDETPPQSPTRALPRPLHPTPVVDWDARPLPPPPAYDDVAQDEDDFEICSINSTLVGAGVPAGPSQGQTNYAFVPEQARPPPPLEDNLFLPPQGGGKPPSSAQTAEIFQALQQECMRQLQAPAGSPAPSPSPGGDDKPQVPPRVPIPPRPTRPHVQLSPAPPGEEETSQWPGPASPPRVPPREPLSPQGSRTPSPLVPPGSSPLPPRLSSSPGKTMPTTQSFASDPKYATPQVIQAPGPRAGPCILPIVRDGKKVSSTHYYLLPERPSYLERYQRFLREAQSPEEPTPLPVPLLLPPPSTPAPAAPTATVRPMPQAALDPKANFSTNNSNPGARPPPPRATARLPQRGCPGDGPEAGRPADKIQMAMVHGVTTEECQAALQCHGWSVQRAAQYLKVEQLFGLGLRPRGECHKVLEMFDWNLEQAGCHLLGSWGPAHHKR
Chain of ALK (Q9UM73 19-1620): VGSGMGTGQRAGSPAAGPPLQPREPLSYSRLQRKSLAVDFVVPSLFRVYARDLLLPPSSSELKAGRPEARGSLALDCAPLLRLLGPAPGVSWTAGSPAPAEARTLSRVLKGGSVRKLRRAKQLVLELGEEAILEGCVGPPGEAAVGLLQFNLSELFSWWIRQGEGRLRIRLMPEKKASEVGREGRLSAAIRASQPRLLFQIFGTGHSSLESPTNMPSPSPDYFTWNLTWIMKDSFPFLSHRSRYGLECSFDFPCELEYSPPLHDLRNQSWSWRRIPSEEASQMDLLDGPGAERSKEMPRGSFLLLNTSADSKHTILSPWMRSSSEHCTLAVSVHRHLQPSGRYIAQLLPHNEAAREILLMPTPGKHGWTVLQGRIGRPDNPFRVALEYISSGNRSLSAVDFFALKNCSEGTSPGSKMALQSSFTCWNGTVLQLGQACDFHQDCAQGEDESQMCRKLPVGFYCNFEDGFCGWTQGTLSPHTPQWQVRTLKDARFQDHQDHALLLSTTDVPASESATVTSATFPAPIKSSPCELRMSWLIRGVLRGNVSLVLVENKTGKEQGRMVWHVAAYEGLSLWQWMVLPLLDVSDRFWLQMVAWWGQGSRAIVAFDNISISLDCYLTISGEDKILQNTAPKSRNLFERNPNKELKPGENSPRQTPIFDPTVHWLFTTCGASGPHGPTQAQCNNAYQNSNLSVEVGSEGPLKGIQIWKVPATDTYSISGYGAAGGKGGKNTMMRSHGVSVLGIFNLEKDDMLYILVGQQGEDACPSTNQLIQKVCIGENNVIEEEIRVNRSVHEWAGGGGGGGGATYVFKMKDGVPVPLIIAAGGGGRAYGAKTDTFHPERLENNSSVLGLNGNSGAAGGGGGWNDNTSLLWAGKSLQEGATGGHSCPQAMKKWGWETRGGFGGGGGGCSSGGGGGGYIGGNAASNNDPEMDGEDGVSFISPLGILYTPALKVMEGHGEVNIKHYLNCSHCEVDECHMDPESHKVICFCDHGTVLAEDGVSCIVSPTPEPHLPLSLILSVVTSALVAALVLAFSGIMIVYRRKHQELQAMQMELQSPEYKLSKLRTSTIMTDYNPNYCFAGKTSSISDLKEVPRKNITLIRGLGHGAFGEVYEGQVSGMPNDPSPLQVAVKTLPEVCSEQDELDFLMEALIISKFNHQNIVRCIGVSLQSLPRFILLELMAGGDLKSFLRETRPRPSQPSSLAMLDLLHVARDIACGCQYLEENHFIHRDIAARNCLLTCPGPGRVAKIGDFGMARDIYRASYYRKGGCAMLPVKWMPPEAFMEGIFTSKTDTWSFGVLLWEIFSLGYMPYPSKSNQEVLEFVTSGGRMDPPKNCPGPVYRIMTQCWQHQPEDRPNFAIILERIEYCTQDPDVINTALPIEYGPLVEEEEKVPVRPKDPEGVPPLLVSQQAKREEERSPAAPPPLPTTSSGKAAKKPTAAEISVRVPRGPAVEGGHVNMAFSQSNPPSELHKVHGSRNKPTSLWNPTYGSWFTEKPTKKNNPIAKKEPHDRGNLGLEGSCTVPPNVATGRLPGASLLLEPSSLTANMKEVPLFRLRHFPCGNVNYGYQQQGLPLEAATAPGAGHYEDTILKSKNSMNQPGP
Chain of EGFR1 (P00533 25-1210): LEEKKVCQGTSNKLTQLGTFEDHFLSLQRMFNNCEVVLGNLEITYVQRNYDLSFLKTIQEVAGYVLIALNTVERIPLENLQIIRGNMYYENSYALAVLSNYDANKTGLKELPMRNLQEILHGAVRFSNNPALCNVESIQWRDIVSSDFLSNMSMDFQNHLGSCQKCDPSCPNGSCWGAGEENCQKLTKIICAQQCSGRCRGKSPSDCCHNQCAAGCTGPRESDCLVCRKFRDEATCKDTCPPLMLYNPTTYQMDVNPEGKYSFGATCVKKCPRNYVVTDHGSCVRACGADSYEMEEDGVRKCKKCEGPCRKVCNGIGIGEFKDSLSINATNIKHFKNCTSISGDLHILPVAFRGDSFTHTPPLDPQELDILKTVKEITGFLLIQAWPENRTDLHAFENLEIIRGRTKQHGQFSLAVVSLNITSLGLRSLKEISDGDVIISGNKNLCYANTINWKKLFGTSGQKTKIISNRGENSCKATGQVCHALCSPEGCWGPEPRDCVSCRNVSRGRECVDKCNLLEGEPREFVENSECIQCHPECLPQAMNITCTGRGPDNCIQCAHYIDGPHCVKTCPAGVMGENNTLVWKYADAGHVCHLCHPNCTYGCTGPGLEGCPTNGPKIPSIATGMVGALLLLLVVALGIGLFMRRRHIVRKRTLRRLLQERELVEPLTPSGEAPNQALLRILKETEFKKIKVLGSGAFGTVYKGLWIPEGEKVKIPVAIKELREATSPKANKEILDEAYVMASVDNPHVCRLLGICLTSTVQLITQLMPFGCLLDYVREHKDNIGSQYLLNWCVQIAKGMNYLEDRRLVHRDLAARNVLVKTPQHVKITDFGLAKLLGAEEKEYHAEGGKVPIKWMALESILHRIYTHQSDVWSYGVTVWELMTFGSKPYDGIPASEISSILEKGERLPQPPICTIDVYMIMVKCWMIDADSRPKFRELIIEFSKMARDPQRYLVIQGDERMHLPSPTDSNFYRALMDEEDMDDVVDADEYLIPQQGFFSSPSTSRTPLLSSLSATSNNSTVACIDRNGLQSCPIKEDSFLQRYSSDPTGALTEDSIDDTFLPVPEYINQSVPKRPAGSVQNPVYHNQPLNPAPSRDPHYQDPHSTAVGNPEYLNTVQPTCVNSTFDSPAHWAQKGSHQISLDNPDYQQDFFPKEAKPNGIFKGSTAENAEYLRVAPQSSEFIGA

IC50 (KIT)	IC50 (FGFR1)	IC50 (ACK1)	IC50 (ABL)	IC50 (LCK)	IC50 (BRK)	IC50 (EGFR1)	IC50 (ALK)	IC50 (CDC7/DBF4)	IC50 (GSK3beta)	IC50 (MELK)	IC50 (CDK2/CYCA)	Compound
1.31 µM	7.27 µM	1.01 µM	0.54 µM	0.59 µM	4.68 µM	7.87 µM	3.4 µM					O=C(NCCN1CCCC1)c1cc2n(c1)CCc1c(NC(=O)c3ccccc3Cl)n[nH]c1-2 [Example A5-M1-B43]
2.61 µM								2.99 µM	1.92 µM	6.33 µM	1.9 µM	CNC(=O)c1cc2n(c1)CCc1c(NC(=O)c3ccc(N4CCN(C)CC4)cc3)n[nH]c1-2 [Example A16-M1-B18]
